Laboratory results taken from ChEMBL document CHEMBL1201862, “PubChem BioAssay data set” (2004).
One block for each compound: values may come before it. The source made the active and inactive calls.

How the values were obtained:
Staphylococcus aureus = experiment: Inhibitors of Bacterial Quorum Sensing Structure Activity Relationship (SAR) Analysis: Dose Response Assay. [Related pubchem assays: 700, 527 ]; format: functional, organism-based
HEK293 [1] = experiment: PMA/Ionomycin induced NF-kB luciferase assay in 293- NF-kB-Luc stable cells. [Related pubchem assays: 1299, 1270, 1295, 1375, 1287, 1281, 1293, 1291, 1289, 1280, 465, 1364, 1282, 1372, 1365, 1370, 1367, 1366, 1269, 1373, 1292, 1290, 1302, 1371, 1283, 1271, 1294, 1374, 1368, 1369 ]; format: functional, cell-based; conditions: Homo sapiens
[2] = biological target: Luciferin 4-monooxygenase (Photinus pyralis, UniProt P08659); experiment: In vitro luciferase assay using purified luciferase. [Related pubchem assays: 1299, 1270, 1295, 1375, 1287, 1281, 1293, 1291, 1289, 1280, 465, 1364, 1282, 1372, 1365, 1370, 1367, 1366, 1266, 1373, 1292, 1290, 1302, 1371, 1283, 1271, 1294, 1374, 1368, 1369 ]
HEK293 [3] = experiment: Cytotoxicity assay in HEK293 cells. [Related pubchem assays (depositor defined):AID1266, AID1269, AID1270, AID1271, AID1280, AID1281, AID1282, AID1283, AID1287, AID1289, AID1290, AID1291, AID1292, AID1293, AID1294, AID1295, AID1299, AID1302, AID1364, AID1365, AID1366, AID1367, AID1369, AID1370, AID1371, AID1372, AID1373, AID1374, AID1375, AID1384 …; format: functional, cell-based; conditions: Homo sapiens
[4] = biological target: Cyclin-dependent kinase 5/CDK5 activator 1 (Homo sapiens, UniProt Q00535); experiment: blockade of human CDK5 activity – biochemical, cherry-picked samples, set 2, dose response (AID 504545)
[5] = biological target: G-protein coupled receptor 35 (Homo sapiens, UniProt Q9HC97); experiment: inhibition of zaprinast-stimulated GPR35 beta-arrestin translocation – imaging, U2OS, beta-arrestin-GFP, zaprinast agonist, primary screen (AID 2058); format: functional;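 also: antagonist potency meaning inhibition of agonist-induced arrestin redistribution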
[6] = Counterscreen for IDE inhibitors: Luminescence-based cell-based high throughput dose response assay to identify compounds that are cytotoxic to HEK cells. [Related pubchem assays: 434962 (Primary screen (IDE inhibitors in singlicate)), 449730 (Counterscreen (Cytotoxicity in triplicate)), 435028 (Confirmation (IDE inhibitors in triplicate)) …; format: functional; conditions: HEK293
Insulin-degrading enzyme = biological target: T1, Insulin-degrading enzyme (Homo sapiens, UniProt P14735); experiment: Dose Response: Fluorescence polarization-based cell-based high throughput dose response assay for inhibitors of insulin-degrading enzyme (IDE). [Related pubchem assays: 434962 (Primary screen (IDE inhibitors in singlicate)), 449730 (Counterscreen (Cytotoxicity in triplicate)), 435028 (Confirmation (IDE inhibitors in triplicate)), 434984 (Summary …; format: functional
T1 sequence (P14735 whole entry): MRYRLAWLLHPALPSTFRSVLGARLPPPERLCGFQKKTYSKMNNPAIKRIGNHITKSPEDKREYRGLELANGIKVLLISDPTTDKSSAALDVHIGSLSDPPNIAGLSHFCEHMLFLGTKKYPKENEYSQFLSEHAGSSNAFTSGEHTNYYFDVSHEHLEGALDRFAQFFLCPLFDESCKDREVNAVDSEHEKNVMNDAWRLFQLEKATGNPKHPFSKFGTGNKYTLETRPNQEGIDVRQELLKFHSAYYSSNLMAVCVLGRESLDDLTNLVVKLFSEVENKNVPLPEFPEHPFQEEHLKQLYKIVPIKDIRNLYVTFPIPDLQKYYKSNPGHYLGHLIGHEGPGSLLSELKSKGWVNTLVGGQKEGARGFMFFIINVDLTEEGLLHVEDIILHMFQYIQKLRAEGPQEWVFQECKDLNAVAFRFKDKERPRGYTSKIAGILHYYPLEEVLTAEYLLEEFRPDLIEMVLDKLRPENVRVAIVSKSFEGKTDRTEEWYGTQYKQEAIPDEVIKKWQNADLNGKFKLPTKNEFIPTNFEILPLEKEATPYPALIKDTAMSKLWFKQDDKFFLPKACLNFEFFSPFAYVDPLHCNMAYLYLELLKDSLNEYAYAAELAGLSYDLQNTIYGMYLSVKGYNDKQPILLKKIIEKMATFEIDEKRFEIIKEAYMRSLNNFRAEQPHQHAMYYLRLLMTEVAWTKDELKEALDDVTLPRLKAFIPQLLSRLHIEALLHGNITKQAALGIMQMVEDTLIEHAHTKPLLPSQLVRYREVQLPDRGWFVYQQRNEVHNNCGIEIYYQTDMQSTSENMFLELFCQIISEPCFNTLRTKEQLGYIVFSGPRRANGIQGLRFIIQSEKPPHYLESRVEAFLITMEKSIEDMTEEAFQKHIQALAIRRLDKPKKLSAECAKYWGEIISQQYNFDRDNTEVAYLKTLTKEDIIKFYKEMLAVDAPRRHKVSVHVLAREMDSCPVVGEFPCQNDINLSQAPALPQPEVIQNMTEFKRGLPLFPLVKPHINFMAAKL

[7] = mitochondrial function rescue without frataxin homolog – Friedreich's ataxia, plus single-dose screen, dose response (AID 1465); format: functional;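 also: yeast depleted of Yfh1p frataxin homolog grown on glycerol needing respiration; WST-1 tetrazolium dye reduction as measure of cellular dehydrogenase metabolic activity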
[8] = biological target: T2, Tyrosine-protein phosphatase non-receptor type 7 (Homo sapiens, UniProt P35236); format: functional
T2 sequence (P35236 whole entry): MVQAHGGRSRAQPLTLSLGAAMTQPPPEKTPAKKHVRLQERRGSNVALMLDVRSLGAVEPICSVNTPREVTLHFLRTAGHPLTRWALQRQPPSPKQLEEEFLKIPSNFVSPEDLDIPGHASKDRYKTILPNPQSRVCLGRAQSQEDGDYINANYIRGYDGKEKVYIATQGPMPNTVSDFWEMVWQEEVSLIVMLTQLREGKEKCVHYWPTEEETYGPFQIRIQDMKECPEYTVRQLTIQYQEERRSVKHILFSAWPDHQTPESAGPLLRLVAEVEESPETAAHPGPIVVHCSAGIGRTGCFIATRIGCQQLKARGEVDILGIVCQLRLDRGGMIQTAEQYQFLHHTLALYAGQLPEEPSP

[9] = biological target: Glyceraldehyde-3-phosphate dehydrogenase (Homo sapiens, UniProt P04406)
[10] = biological target: Heat shock cognate 71 kDa protein (Homo sapiens, UniProt P11142); experiment: In Vitro Hsc70 Dose Response Fluorescence Polarization Assay. [Related pubchem assays: 1072 ]
[11] = biological target: Heat shock 70 kDa protein 1A (Homo sapiens, UniProt P0DMV8); experiment: inhibition of Hsp70 binding activity – biochemical, fluorescence polarization, SAR follow-up (AID 1072)
[12] = biological target: T3, Dual specificity protein phosphatase 6 (Rattus norvegicus, UniProt Q64346)
T3 sequence (Q64346 whole entry): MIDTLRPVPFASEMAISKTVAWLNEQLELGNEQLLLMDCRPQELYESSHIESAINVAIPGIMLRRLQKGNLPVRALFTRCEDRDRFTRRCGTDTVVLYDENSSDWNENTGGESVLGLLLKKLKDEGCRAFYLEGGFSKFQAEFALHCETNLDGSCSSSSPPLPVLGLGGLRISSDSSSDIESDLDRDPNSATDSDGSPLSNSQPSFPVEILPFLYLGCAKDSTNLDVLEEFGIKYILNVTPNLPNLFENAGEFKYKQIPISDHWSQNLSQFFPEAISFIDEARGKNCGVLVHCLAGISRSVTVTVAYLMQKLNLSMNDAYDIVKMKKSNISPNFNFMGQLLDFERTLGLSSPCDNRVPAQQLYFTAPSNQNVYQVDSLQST

[13] = biological target: T3, Dual specificity protein phosphatase 6; format: functional

Chain of Luciferin 4-monooxygenase (P08659 whole entry): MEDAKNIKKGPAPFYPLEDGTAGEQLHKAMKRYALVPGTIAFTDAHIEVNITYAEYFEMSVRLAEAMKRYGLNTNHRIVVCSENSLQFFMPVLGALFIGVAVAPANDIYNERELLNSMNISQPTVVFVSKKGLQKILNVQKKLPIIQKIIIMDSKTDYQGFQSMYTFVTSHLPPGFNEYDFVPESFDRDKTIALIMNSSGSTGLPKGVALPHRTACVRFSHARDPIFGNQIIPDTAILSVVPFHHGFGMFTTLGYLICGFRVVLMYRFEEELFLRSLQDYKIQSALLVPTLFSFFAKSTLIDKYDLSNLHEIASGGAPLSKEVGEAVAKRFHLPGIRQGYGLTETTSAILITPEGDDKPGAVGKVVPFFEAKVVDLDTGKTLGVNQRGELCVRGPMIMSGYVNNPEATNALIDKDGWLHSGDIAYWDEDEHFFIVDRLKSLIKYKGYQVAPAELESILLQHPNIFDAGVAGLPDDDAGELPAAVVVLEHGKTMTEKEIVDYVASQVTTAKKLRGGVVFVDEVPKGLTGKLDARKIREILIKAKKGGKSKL
Chain of G-protein coupled receptor 35 (Q9HC97 whole entry): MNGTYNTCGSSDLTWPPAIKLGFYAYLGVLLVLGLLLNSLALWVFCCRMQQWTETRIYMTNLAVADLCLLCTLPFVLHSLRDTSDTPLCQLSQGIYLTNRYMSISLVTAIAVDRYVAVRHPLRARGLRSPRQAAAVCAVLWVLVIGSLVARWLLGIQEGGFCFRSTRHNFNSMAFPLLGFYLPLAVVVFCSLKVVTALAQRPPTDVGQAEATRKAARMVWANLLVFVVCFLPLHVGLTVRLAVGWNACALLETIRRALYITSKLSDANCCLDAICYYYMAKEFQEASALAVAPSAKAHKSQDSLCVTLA
Chain of Cyclin-dependent kinase 5/CDK5 activator 1 (Q00535 whole entry): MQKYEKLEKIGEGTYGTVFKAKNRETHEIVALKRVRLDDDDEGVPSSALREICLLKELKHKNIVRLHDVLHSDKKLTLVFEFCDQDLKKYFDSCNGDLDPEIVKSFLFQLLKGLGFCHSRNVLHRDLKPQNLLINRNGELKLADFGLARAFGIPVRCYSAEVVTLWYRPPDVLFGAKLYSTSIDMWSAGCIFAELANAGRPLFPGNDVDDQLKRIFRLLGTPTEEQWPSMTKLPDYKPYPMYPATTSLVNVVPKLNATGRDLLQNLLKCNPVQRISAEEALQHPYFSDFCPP
Chain of Cyclin-dependent kinase 5/CDK5 activator 1 (Q15078 whole entry, further chain): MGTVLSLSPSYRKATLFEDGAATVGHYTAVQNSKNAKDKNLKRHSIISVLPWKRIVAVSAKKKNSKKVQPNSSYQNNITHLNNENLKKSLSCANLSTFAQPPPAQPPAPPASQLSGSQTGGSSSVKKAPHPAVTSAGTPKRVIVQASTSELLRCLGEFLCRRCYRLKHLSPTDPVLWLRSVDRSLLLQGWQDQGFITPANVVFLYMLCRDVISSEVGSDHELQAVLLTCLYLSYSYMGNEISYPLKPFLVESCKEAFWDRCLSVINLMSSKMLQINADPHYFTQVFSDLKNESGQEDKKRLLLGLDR
Chain of Glyceraldehyde-3-phosphate dehydrogenase (P04406 whole entry): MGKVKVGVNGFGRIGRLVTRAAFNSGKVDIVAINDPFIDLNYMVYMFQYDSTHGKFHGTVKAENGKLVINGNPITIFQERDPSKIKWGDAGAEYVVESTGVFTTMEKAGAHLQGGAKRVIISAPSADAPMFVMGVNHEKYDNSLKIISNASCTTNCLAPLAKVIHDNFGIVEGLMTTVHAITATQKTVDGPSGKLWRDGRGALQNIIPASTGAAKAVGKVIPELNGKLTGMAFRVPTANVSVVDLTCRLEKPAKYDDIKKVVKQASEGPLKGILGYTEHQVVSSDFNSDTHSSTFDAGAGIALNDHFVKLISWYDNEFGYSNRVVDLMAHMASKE
Chain of Heat shock 70 kDa protein 1A (P0DMV8 whole entry): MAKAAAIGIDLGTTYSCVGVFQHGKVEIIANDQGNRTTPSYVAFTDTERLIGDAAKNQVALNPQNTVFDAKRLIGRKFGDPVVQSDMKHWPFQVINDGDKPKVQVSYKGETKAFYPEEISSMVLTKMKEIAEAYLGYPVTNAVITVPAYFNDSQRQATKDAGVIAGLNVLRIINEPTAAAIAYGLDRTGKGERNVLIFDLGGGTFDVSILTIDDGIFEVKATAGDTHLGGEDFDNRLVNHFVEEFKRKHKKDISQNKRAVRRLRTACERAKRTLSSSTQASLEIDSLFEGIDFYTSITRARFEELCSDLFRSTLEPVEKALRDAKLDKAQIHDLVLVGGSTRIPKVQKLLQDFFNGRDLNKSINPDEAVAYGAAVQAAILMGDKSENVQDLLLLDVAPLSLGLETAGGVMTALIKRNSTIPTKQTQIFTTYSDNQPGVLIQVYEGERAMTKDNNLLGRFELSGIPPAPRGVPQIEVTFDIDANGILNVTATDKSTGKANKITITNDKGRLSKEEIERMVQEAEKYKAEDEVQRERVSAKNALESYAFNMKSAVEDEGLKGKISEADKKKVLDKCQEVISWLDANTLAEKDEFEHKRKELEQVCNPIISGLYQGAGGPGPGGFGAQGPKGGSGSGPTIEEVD
Chain of Heat shock cognate 71 kDa protein (P11142 whole entry): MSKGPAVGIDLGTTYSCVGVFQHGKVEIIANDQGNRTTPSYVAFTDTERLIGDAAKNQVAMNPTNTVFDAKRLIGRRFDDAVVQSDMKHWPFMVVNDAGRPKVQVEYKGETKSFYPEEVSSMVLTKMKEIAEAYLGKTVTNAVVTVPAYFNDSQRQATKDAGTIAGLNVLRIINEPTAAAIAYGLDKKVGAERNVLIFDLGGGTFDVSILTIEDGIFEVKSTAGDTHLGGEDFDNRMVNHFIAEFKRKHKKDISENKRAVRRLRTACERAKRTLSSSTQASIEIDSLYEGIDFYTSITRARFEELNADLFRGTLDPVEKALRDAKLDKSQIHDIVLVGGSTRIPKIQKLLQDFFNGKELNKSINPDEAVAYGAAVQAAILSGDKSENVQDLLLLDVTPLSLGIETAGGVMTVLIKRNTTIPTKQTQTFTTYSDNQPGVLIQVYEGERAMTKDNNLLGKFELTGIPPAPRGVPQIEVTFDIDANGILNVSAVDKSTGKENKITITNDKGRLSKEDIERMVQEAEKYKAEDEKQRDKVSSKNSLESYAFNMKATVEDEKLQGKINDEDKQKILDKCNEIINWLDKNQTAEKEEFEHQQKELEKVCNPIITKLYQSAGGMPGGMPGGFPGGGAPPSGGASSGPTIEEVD

Structure (SMILES): Cc1ccc(C)c(S(=O)(=O)c2nnn3c2[nH]c(=O)c2sccc23)c1
IC50 (Staphylococcus aureus): 5.17 µM (active)

Structure (SMILES): C/C(=N\NC(=O)c1cccc([N+](=O)[O-])c1)c1ccccn1
EC50 (HEK293 [1]): 6.12 µM (not active)
EC50 [2]: > 8 µM (not active)
EC50 (HEK293 [3]): 10.2 µM (inactive)

Structure (SMILES): CC(C)Oc1ccc(NC(=O)Oc2ccccc2)cc1
AC50 [4]: 129 µM (active)

Structure (SMILES): N#C/C(=C\c1ccc(N2CCCCC2)o1)C(N)=O
IC50 [5]: 6.55 µM (active)
IC50 [6]: > 55.7 µM (not active)
IC50 (Insulin-degrading enzyme): 8.72 µM (active)
EC50 [7]: > 100 µM (active)

IC50 [8]: 2.51 µM (active)
IC50 [9]: > 100 µM (not active)
IC50 [10]: > 100 µM (not active)
IC50 [11]: 2.42 µM (active)
IC50 [12]: 17.8 µM (active)
IC50 [13]: 15.5 µM (active)
Structure (SMILES): O=C(O)c1ccc2c(c1)C1C=CCC1C(C(=O)O)N2 (stereo not given)
